Assay results from ChEMBL document CHEMBL3352247, “Synthesis and antimycobacterial evaluation of 5-alkylamino-N-phenylpyrazine-2-carboxamides” (Bioorg Med Chem, 2015).
The source made the active and inactive calls. No cut-off for these calls is given here.

Tests used:
Klebsiella pneumoniae [1] = assay: Antibacterial activity against Klebsiella pneumoniae D 11750/08 clinical isolate after 24 to 48 hrs by broth microdilution method; assay type: functional, organism-based
Enterococcus sp. = assay: Antibacterial activity against Enterococcus sp. J 14365/08 clinical isolate after 24 to 48 hrs by broth microdilution method; assay type: functional, organism-based
Klebsiella pneumoniae [2] = assay: Antibacterial activity against ESBL-positive Klebsiella pneumoniae J 14368/08 clinical isolate after 24 to 48 hrs by broth microdilution method; assay type: functional, organism-based
[3] = system: Mycobacterium tuberculosis; assay: Antimycobacterial activity against Mycobacterium tuberculosis H37Rv CNCTC My 331/88 in Middlebrook 7H9 broth after 5 days by AlamarBlue assay; assay type: functional; conditions: H37Rv CNCTC My 331/88, 120 h
Mycobacterium kansasii = assay: Antimycobacterial activity against Mycobacterium kansasii CNCTC My 235/80 in Middlebrook 7H9 broth after 5 days by AlamarBlue assay; assay type: functional; conditions: CNCTC My 235/80, 120 h
Candida tropicalis = assay: Antifungal activity against Candida tropicalis 156 after 24 to 48 hrs by two-fold dilution method; assay type: functional, organism-based
Nakaseomyces glabratus = assay: Antifungal activity against Candida glabrata 20/I after 24 to 48 hrs by two-fold dilution method; assay type: functional, organism-based
Escherichia coli = assay: Antibacterial activity against Escherichia coli CCM 4517 after 24 to 48 hrs by broth microdilution method; assay type: functional, organism-based
Staphylococcus aureus [4] = assay: Antibacterial activity against methicillin-resistant Staphylococcus aureus H 5996/08 clinical isolate after 24 to 48 hrs by broth microdilution method; assay type: functional, organism-based
Pseudomonas aeruginosa = assay: Antibacterial activity against Pseudomonas aeruginosa CCM 1961 after 24 to 48 hrs by broth microdilution method; assay type: functional, organism-based
Aspergillus fumigatus = assay: Antifungal activity against Aspergillus fumigatus 231 after 24 to 48 hrs by two-fold dilution method; assay type: functional, organism-based
[5] = system: Trichophyton mentagrophytes; assay: Antifungal activity against Trichophyton mentagrophytes 445 after 72 to 120 hrs by two-fold dilution method; assay type: functional, organism-based
Candida albicans = assay: Antifungal activity against Candida albicans ATCC 44859 after 24 to 48 hrs by two-fold dilution method; assay type: functional, organism-based
Lichtheimia corymbifera = assay: Antifungal activity against Absidia corymbifera 272 after 24 to 48 hrs by two-fold dilution method; assay type: functional, organism-based
[6] = Antimycobacterial activity against Mycobacterium avium subsp. avium Chester CNCTC My 80/72 in Middlebrook 7H9 broth after 5 days by AlamarBlue assay; assay type: functional; conditions: Chester CNCTC My 80/72, 120 h
Staphylococcus aureus [7] = assay: Antibacterial activity against Staphylococcus aureus CCM 4516/08 after 24 to 48 hrs by broth microdilution method; assay type: functional, organism-based
[8] = system: Staphylococcus epidermidis; assay: Antibacterial activity against Staphylococcus epidermidis H 6966/08 clinical isolate after 24 to 48 hrs by broth microdilution method; assay type: functional, organism-based
Trichosporon asahii = assay: Antifungal activity against Trichosporon asahii 1188 after 24 to 48 hrs by two-fold dilution method; assay type: functional, organism-based
Pichia kudriavzevii = assay: Antifungal activity against Candida krusei E28 after 24 to 48 hrs by two-fold dilution method; assay type: functional, organism-based

Row | SMILES | Activity (Klebsiella pneumoniae [1]) | Activity (Enterococcus sp.) | Activity (Klebsiella pneumoniae [2]) | MIC [3] | MIC (Mycobacterium kansasii) [µg/mL] | Activity (Candida tropicalis) | Activity (Nakaseomyces glabratus) | Activity (Escherichia coli) | Activity (Staphylococcus aureus [4]) | Activity (Pseudomonas aeruginosa) | Activity (Aspergillus fumigatus) | Activity [5] | Activity (Candida albicans) | Activity (Lichtheimia corymbifera) | MIC [6] [µg/mL] | Activity (Staphylococcus aureus [7]) | Activity [8] | Activity (Trichosporon asahii) | Activity (Pichia kudriavzevii)
1 | Nc1cnc(C(=O)Nc2ccccc2Cl)cn1 | inactive | inactive | inactive | > 100 µg/mL | > 100 | inactive | inactive | inactive | inactive | inactive | inactive | inactive | inactive | inactive | > 100 | inactive | inactive | inactive | inactive
2 | O=C(Nc1ccccc1Cl)c1cnc(NCCCc2ccccc2)cn1 | inactive | inactive | inactive | > 100 µg/mL | > 100 | inactive | inactive | inactive | inactive | inactive | inactive | inactive | inactive | inactive | > 100 | inactive | inactive | inactive | inactive
3 | O=C(Nc1ccccc1)c1cnc(NCCO)cn1 | inactive | inactive | inactive | > 100 µg/mL | > 100 | inactive | inactive | inactive | inactive | inactive | inactive | inactive | inactive | inactive | > 100 | inactive | inactive | inactive | inactive
4 | COCCCNc1cnc(C(=O)Nc2ccccc2Cl)cn1 | inactive | inactive | inactive | > 100 µg/mL | > 100 | inactive | inactive | inactive | inactive | inactive | inactive | inactive | inactive | inactive | > 100 | inactive | inactive | inactive | inactive
5 | O=C(Nc1ccccc1Cl)c1cnc(NCCCO)cn1 | inactive | inactive | inactive | > 100 µg/mL | > 100 | inactive | inactive | inactive | inactive | inactive | inactive | inactive | inactive | inactive | > 100 | inactive | inactive | inactive | inactive
6 | COCCCNc1cnc(C(=O)Nc2ccccc2)cn1 | inactive | inactive | inactive | 87.3 µM | > 100 | inactive | inactive | inactive | inactive | inactive | inactive | inactive | inactive | inactive | > 100 | inactive | inactive | inactive | inactive
7 | COCCNc1cnc(C(=O)Nc2ccccc2Cl)cn1 | inactive | inactive | inactive | > 100 µg/mL | > 100 | inactive | inactive | inactive | inactive | inactive | inactive | inactive | inactive | inactive | > 100 | inactive | inactive | inactive | inactive
8 | O=C(Nc1ccccc1)c1cnc(NCCCO)cn1 | inactive | inactive | inactive | > 100 µg/mL | > 100 | inactive | inactive | inactive | inactive | inactive | inactive | inactive | inactive | inactive | > 100 | inactive | inactive | inactive | inactive
9 | O=C(Nc1ccccc1)c1cnc(NCCCc2ccccc2)cn1 | inactive | inactive | inactive | 75.2 µM | > 100 | inactive | inactive | inactive | inactive | inactive | inactive | inactive | inactive | inactive | > 100 | inactive | inactive | inactive | inactive
10 | Nc1cnc(C(=O)Nc2ccccc2)cn1 | inactive | inactive | inactive | > 100 µg/mL | > 100 | inactive | inactive | inactive | inactive | inactive | inactive | inactive | inactive | inactive | > 100 | inactive | inactive | inactive | inactive
11 | O=C(Nc1ccccc1Cl)c1cnc(NCCO)cn1 | inactive | inactive | inactive | > 100 µg/mL | > 100 | inactive | inactive | inactive | inactive | inactive | inactive | inactive | inactive | inactive | > 100 | inactive | inactive | inactive | inactive
12 | COCCNc1cnc(C(=O)Nc2ccccc2)cn1 | inactive | inactive | inactive | 184 µM | > 100 | inactive | inactive | inactive | inactive | inactive | inactive | inactive | inactive | inactive | > 100 | inactive | inactive | inactive | inactive
13 | O=C(Nc1ccccc1Cl)c1cnc(NCCCCO)cn1 | inactive | inactive | inactive | > 100 µg/mL | > 100 | inactive | inactive | inactive | inactive | inactive | inactive | inactive | inactive | inactive | > 100 | inactive | inactive | inactive | inactive
